Data as given in patent US20050245399A1, “Pyrazole derivatives as herbicidal compositions containing them” (ISHIHARA SANGYO KAISHA, LTD., priority 2004, published 2005).

Columns and labels:
Type in all cases: in vivo
[1] = tested on: barnyardgrass (Echinochloa crus-galli L.): ECHCG; experiment: Test Example 1 pre-emergence herbicidal activity, ECHCG; details: visually observed 20th to 23rd day after application
Summary of the method: (§1)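 Herbicidal effect in pre-emergence treatment: formulated compound sprayed at 500 L/ha water one day after sowing in upland field soil pots, with visual 0–100% growth-control scores recorded 20–23 days after application.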

[2] = tested on: crabgrass (Digitaria sanguinalis L.): DIGSA; experiment: Test Example 1 pre-emergence herbicidal activity, DIGSA; details: visually observed 20th to 23rd day after application
Summary of the method: as §1

[3] = tested on: green foxtail (Setaria viridis L.): SETVI; experiment: Test Example 1 pre-emergence herbicidal activity, SETVI; details: visually observed 20th to 23rd day after application
Summary of the method: as §1

[4] = tested on: redroot pigweed (Amaranthus retroflexus L.): AMARE; experiment: Test Example 1 pre-emergence herbicidal activity, AMARE; details: visually observed 20th to 23rd day after application
Summary of the method: as §1

[5] = tested on: prickly sida (Sida spinosa L.): SEDSP; experiment: Test Example 1 pre-emergence herbicidal activity, SIDSP; details: visually observed 20th to 23rd day after application
Summary of the method: as §1

[6] = tested on: velvetleaf (Abutilon theophrasti): ABUTH; experiment: Test Example 1 pre-emergence herbicidal activity, ABUTH; details: visually observed 20th to 23rd day after application
Summary of the method: as §1

[7] = tested on: rice (Oryza sativa L.): ORYSA; experiment: Test Example 1 pre-emergence herbicidal activity, ORYSA; details: visually observed 20th to 23rd day after application
Summary of the method: as §1

[8] = tested on: wheat (Triticum aestivum L.): TRZAX; experiment: Test Example 1 pre-emergence herbicidal activity, TRZAX; details: visually observed 20th to 23rd day after application
Summary of the method: as §1

[9] = tested on: corn (Zea mays L.): ZEAMX; experiment: Test Example 1 pre-emergence herbicidal activity, ZEAMX; details: visually observed 20th to 23rd day after application
Summary of the method: as §1

[10] = tested on: soybean (Glycine max Merr.): GLXMA; experiment: Test Example 1 pre-emergence herbicidal activity, GLXMA; details: visually observed 20th to 23rd day after application
Summary of the method: as §1

[11] = tested on: barnyardgrass (Echinochloa crus-galli L.), ECHCG; experiment: Test Example 2 post-emergence (foliage treatment) herbicidal activity, ECHCG; details: 63 g a.i./ha
Summary of the method: (§2)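 A small sprayer delivered the diluted WP or EC formulation (500 L/ha water, 0.1% v/v spreader) over emerged seedlings in upland soil pots. Damage relative to untreated plants was graded visually from 0 to 100% three weeks or so later (days 20-23).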

[12] = tested on: crabgrass (Digitaria sanguinalis L.), DIGSA; experiment: Test Example 2 post-emergence (foliage treatment) herbicidal activity, DIGSA; details: 63 g a.i./ha
Summary of the method: as §2

[13] = tested on: green foxtail (Setaria viridis L.), SETVI; experiment: Test Example 2 post-emergence (foliage treatment) herbicidal activity, SETVI; details: 63 g a.i./ha
Summary of the method: (§3)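 Each species was evaluated for growth suppression by eye, 0% matching untreated and 100% meaning death, some 20 to 23 days after a single post-emergence foliar treatment applied in 500 L/ha of water carrying 0.1% (v/v) agricultural spreader.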

[14] = tested on: redroot pigweed (Amaranthus retroflexus L.), AMARE; experiment: Test Example 2 post-emergence (foliage treatment) herbicidal activity, AMARE; details: 63 g a.i./ha
Summary of the method: as §2

[15] = tested on: prickly sida (Sida spinosa L.), SIDSP; experiment: Test Example 2 post-emergence (foliage treatment) herbicidal activity, SIDSP; details: 63 g a.i./ha
Summary of the method: as §3

[16] = tested on: velvetleaf (Abutilon theophrasti), ABUTH; experiment: Test Example 2 post-emergence (foliage treatment) herbicidal activity, ABUTH; details: 63 g a.i./ha
Summary of the method: as §3

[17] = tested on: rice (Oryza sativa L.), ORYSA; experiment: Test Example 2 post-emergence (foliage treatment) herbicidal activity, ORYSA; details: 63 g a.i./ha
Summary of the method: as §2

[18] = tested on: wheat (Triticum aestivum L.), TRZAX; experiment: Test Example 2 post-emergence (foliage treatment) herbicidal activity, TRZAX; details: 63 g a.i./ha
Summary of the method: as §3

[19] = tested on: corn (Zea mays L.), ZEAMX; experiment: Test Example 2 post-emergence (foliage treatment) herbicidal activity, ZEAMX; details: 63 g a.i./ha
Summary of the method: as §3

[20] = tested on: soybean (Glycine max Merr.), GLXMA; experiment: Test Example 2 post-emergence (foliage treatment) herbicidal activity, GLXMA; details: 63 g a.i./ha
Summary of the method: as §3

[21] = tested on: barnyardgrass (Echinochiloa oryzicola: ECHOR); experiment: Test Example 3 water application herbicidal activity (paddy), ECHOR; details: 63 g a.i./ha, water application under submerged condition at 0.5 leaf stage, visually observed 14th day after application; 0 = untreated control, 100 = complete kill
Summary of the method: (§4)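 Compound, as diluted wettable powder or emulsifiable concentrate, was pipetted into flood water at a set active-ingredient dose. Weeds were treated at 0.5-leaf stage after sowing or tuber planting; 2-leaf rice 4 days post-transplant. Control scored visually, 0 untreated to 100 complete kill, weeds day 14, rice day 21.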

[22] = tested on: japanese bulrush (Scirpus juncoides: SCPJO); experiment: Test Example 3 water application herbicidal activity (paddy), SCPJO; details: 63 g a.i./ha, water application under submerged condition at 0.5 leaf stage, visually observed 14th day after application; 0 = untreated control, 100 = complete kill
Summary of the method: as §4

[23] = tested on: japanese ribbon wapato (Sagittaria pygmaea: SA GPY); experiment: Test Example 3 water application herbicidal activity (paddy), SAGPY; details: 63 g a.i./ha, water application under submerged condition, tubers planted, visually observed 14th day after application; 0 = untreated control, 100 = complete kill
Summary of the method: as §4

[24] = tested on: rice (Oryza sativa L.: ORYSA); experiment: Test Example 3 water application herbicidal activity (paddy), transplanted rice ORYSA; details: 63 g a.i./ha, water application 4th day after transplantation of 2 leaf stage rice, visually observed 21st day after application; 0 = untreated control, 100 = complete kill
Summary of the method: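 Submerged application in flooded paddy soil (3–4 cm water); weeds treated at 0.5-leaf stage, transplanted rice 4 d after transplanting. Scored visually as % growth control: weeds at 14 d, rice at 21 d.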

Structure (SMILES) | Pre-emergence Herbicidal Activity ECHCG (growth controlling degree) ([1]; Rate 63 g a.i./ha) [%] | Pre-emergence Herbicidal Activity DIGSP (growth controlling degree) ([2]; Rate 63 g a.i./ha) [%] | Pre-emergence Herbicidal Activity SETVI (growth controlling degree) ([3]; Rate 63 g a.i./ha) [%] | Pre-emergence Herbicidal Activity AMARE (growth controlling degree) ([4]; Rate 63 g a.i./ha) [%] | Pre-emergence Herbicidal Activity SIDSP (growth controlling degree) ([5]; Rate 63 g a.i./ha) [%] | Pre-emergence Herbicidal Activity ABUTH (growth controlling degree) ([6]; Rate 63 g a.i./ha) [%] | growth controlling degree, ECHCO [11] [%] | growth controlling degree, DIGSP [12] [%] | growth controlling degree, SETVI [13] [%] | growth controlling degree, AMARE [14] [%] | growth controlling degree, SIDSP [15] [%] | growth controlling degree, ABUTH [16] [%] | growth controlling degree, ORYSA [17] [%] | growth controlling degree, TRZAX [18] [%] | growth controlling degree, ZEAMX [19] [%] | growth controlling degree, GLXMA [20] [%] | growth controlling degrees (%) ECHOR [21] [%] | growth controlling degrees (%) SCPJO [22] [%] | growth controlling degrees (%) SAGPY [23] [%] | growth controlling degrees (%) ORYSA [24] [%] | other results
COc1ccc(COC(=O)Nc2c(OC)c(Cl)cc(F)c2-c2nn(C)c(OC(F)F)c2Cl)cc1 [Compound 1-56] | 50 | 70 | 80 | 100 | 70 | 60 | 90 | 98 | 100 | 100 | 100 | 100 | 90 | 50 | 80 | 100 | 100 | 95 | 80 | 35 | Pre-emergence Herbicidal Activity ORYSA (growth controlling degree) ([7]; Rate 63 g a.i./ha): 20%; Pre-emergence Herbicidal Activity TRZAX (growth controlling degree) ([8]; Rate 63 g a.i./ha): 0%; Pre-emergence Herbicidal Activity ZEAMX (growth controlling degree) ([9]; Rate 63 g a.i./ha): 10%; Pre-emergence Herbicidal Activity GLXMA (growth controlling degree) ([10]; Rate 63 g a.i./ha): 0%
COc1c(Cl)cc(F)c(-c2nn(C)c(OC(F)F)c2Cl)c1N(C(=O)CCc1ccccc1)C(=O)CCc1ccccc1 [Compound 1-18] | – | – | – | – | – | – | 70 | 70 | 80 | 100 | 100 | 100 | 60 | 10 | 60 | 60 | 100 | 40 | 50 | 30 | Pre-emergence Herbicidal Activity ECHCG (growth controlling degree) ([1]; Rate 125 g a.i./ha): 70%; Pre-emergence Herbicidal Activity DIGSP (growth controlling degree) ([2]; Rate 125 g a.i./ha): 98%; Pre-emergence Herbicidal Activity SETVI (growth controlling degree) ([3]; Rate 125 g a.i./ha): 50%; Pre-emergence Herbicidal Activity AMARE (growth controlling degree) ([4]; Rate 125 g a.i./ha): 100%; Pre-emergence Herbicidal Activity SIDSP (growth controlling degree) ([5]; Rate 125 g a.i./ha): 60%; Pre-emergence Herbicidal Activity ABUTH (growth controlling degree) ([6]; Rate 125 g a.i./ha): 40%; Pre-emergence Herbicidal Activity ORYSA (growth controlling degree) ([7]; Rate 125 g a.i./ha): 50%; Pre-emergence Herbicidal Activity TRZAX (growth controlling degree) ([8]; Rate 125 g a.i./ha): 30%; Pre-emergence Herbicidal Activity ZEAMX (growth controlling degree) ([9]; Rate 125 g a.i./ha): 0%; Pre-emergence Herbicidal Activity GLXMA (growth controlling degree) ([10]; Rate 125 g a.i./ha): 20%
COc1c(Cl)cc(F)c(-c2nn(C)c(OC(F)F)c2Cl)c1NC(=O)C=Cc1c(Cl)cccc1Cl [Compound 1-252] | 30 | 40 | 50 | 100 | 20 | 50 | 100 | 95 | 100 | 100 | 100 | 100 | 50 | 50 | 50 | 80 | 100 | 30 | 60 | 10 | Pre-emergence Herbicidal Activity ORYSA (growth controlling degree) ([7]; Rate 63 g a.i./ha): 10%; Pre-emergence Herbicidal Activity TRZAX (growth controlling degree) ([8]; Rate 63 g a.i./ha): 10%; Pre-emergence Herbicidal Activity ZEAMX (growth controlling degree) ([9]; Rate 63 g a.i./ha): 0%; Pre-emergence Herbicidal Activity GLXMA (growth controlling degree) ([10]; Rate 63 g a.i./ha): 0%
COc1c(Cl)cc(F)c(-c2nn(C)c(OC(F)F)c2Cl)c1NC(=O)OCc1ccccc1Cl [Compound 1-63] | 30 | 40 | 30 | 100 | 20 | 30 | 100 | 90 | 100 | 100 | 100 | 100 | 60 | 40 | 70 | 60 | 100 | 70 | 70 | 40 | Pre-emergence Herbicidal Activity ORYSA (growth controlling degree) ([7]; Rate 63 g a.i./ha): 0%; Pre-emergence Herbicidal Activity TRZAX (growth controlling degree) ([8]; Rate 63 g a.i./ha): 10%; Pre-emergence Herbicidal Activity ZEAMX (growth controlling degree) ([9]; Rate 63 g a.i./ha): 0%; Pre-emergence Herbicidal Activity GLXMA (growth controlling degree) ([10]; Rate 63 g a.i./ha): 0%
COC(=O)CN(C=O)c1c(OC)c(Cl)cc(F)c1-c1nn(C)c(OC(F)F)c1Cl [Compound 1-20] | – | – | – | – | – | – | 10 | 20 | 70 | 100 | 90 | 60 | 50 | 10 | 40 | 50 | 90 | 20 | 0 | 30 | Pre-emergence Herbicidal Activity ECHCG (growth controlling degree) ([1]; Rate 125 g a.i./ha): 10%; Pre-emergence Herbicidal Activity DIGSP (growth controlling degree) ([2]; Rate 125 g a.i./ha): 30%; Pre-emergence Herbicidal Activity SETVI (growth controlling degree) ([3]; Rate 125 g a.i./ha): 10%; Pre-emergence Herbicidal Activity AMARE (growth controlling degree) ([4]; Rate 125 g a.i./ha): 100%; Pre-emergence Herbicidal Activity SIDSP (growth controlling degree) ([5]; Rate 125 g a.i./ha): 98%; Pre-emergence Herbicidal Activity ABUTH (growth controlling degree) ([6]; Rate 125 g a.i./ha): 80%; Pre-emergence Herbicidal Activity ORYSA (growth controlling degree) ([7]; Rate 125 g a.i./ha): 0%; Pre-emergence Herbicidal Activity TRZAX (growth controlling degree) ([8]; Rate 125 g a.i./ha): 0%; Pre-emergence Herbicidal Activity ZEAMX (growth controlling degree) ([9]; Rate 125 g a.i./ha): 0%; Pre-emergence Herbicidal Activity GLXMA (growth controlling degree) ([10]; Rate 125 g a.i./ha): 10%
